{"source": "BindingDB's records for patent US11504368", "about": "(Thomas Helledays Stiftelse FÖr Medicinsk Forskning, 2022)", "target": "T1, Bifunctional methylenetetrahydrofolate dehydrogenase/cyclohydrolase, mitochondrial (Homo sapiens, UniProt P13995)", "T1 sequence (P13995 whole entry)": "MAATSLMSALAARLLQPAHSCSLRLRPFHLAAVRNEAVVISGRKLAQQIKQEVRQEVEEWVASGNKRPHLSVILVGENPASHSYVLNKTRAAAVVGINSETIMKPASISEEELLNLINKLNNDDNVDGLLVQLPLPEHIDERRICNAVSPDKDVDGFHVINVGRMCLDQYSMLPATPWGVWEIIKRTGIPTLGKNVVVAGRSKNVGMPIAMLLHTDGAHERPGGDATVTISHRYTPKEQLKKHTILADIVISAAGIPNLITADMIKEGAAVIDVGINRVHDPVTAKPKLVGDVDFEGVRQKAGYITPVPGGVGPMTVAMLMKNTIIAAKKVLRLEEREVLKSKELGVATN", "assay": "Inhibition of MTHFD2", "description": "DMSO was used as negative control. The serial dilution in DMSO, from compound DMSO stock solution, was created by dispensing from a 384-well low dead volume microplate (LP-0200, Labcyte) and a 384-well polypropylene microplate 2.0 (PP-0200, Labcyte). A total of 2.5 μL MTHFD2 was preincubated with compound or DMSO for 10 min. The enzymatic reaction was initiated by adding 2.5 μL folitixorin (F680350, Toronto Research Chemicals). For background control, 5 μL buffer was added to the well. […] The final concentrations of all reagents in a total assay volume of 5 μL per well were 50 mmol/L Tris-HCl at pH 8.0, 100 mmol/L NaCl, 5 mmol/L MgCl2, 25 mmol/L Na3PO4 at pH 8.0, 0.005% (v/v) Tween-20, and 2 mmol/L 2-mercaptoethanol. After 15 min reaction time, 5 μL NAD(P)H-Glo detection reagent (G9061 or G9062, Promega) was dispensed in all wells and the plate was incubated for 60 min. Luminescence was measured on a plate reader (Envision, PerkinElmer or Sense, Hidex). The light signal produced is proportional to the amount of NAD(P)H in the sample."}
{"smiles": "Nc1nc(N)c(NC(=O)Nc2ccc(C(=O)N[C@@H](CCc3ccccc3)C(=O)O)nc2)c(=O)[nH]1", "note": "[US11504368, Example 14]", "values": [{"measurement": "IC50", "result": 36, "unit": "nM"}]}
